Experimental data: PubChem BioAssay (NCI)
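Test compounds were applied to cells in 96-well plates for 48 hours at 5 doses. GI50 marks 50% less growth. TGI marks complete inhibition of growth.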

Experiments:
Test in all cases: inhibition of tumour cell growth, NCI panel, 48 h
[1] = tested on: HL-60(TB) leukemia
[2] = tested on: SK-MEL-28 melanoma
[3] = tested on: PC-3 prostate
[4] = tested on: OVCAR-8 ovarian
[5] = tested on: U251 CNS
[6] = tested on: OVCAR-4 ovarian
[7] = tested on: MOLT-4 leukemia
[8] = tested on: MCF7 breast
[9] = tested on: A549 NSCLC
[10] = tested on: LOX IMVI melanoma
[11] = tested on: OVCAR-3 ovarian
[12] = tested on: NCI-H522 lung
[13] = tested on: M14 melanoma
[14] = tested on: MALME-3M melanoma
[15] = tested on: SNB-19 CNS
[16] = tested on: HS 578T breast
[17] = tested on: SR leukemia
[18] = tested on: RPMI-8226 leukemia
[19] = tested on: K-562 leukemia
[20] = tested on: HOP-62 NSCLC
[21] = tested on: SK-MEL-2 melanoma
[22] = tested on: TK-10 renal
[23] = tested on: KM12 colon
[24] = tested on: NCI/ADR-RES ovarian
[25] = tested on: COLO 205 colon
[26] = tested on: HCT-116 colon
[27] = tested on: SK-OV-3 ovarian
[28] = tested on: HOP-92 NSCLC
[29] = tested on: SW-620 colon
[30] = tested on: SF-268 CNS
[31] = tested on: UACC-257 melanoma
[32] = tested on: OVCAR-5 ovarian
[33] = tested on: A498 renal
[34] = tested on: HT29 colon
[35] = tested on: SNB-75 CNS
[36] = tested on: 786-0 renal
[37] = tested on: MDA-MB-435
[38] = tested on: DU-145 prostate
[39] = tested on: CAKI-1 renal
[40] = tested on: BT-549 breast
[41] = tested on: UACC-62 melanoma
[42] = tested on: NCI-H226 lung
[43] = tested on: HCT-15 colon
[44] = tested on: SF-539 CNS
[45] = tested on: NCI-H460 lung
[46] = tested on: HCC-2998 colon
[47] = tested on: MDA-MB-231 breast
[48] = tested on: T-47D breast
[49] = tested on: RXF 393 renal
[50] = tested on: UO-31 renal
[51] = tested on: IGROV1 ovarian
[52] = tested on: SN12C renal
[53] = tested on: SK-MEL-5 melanoma
[54] = tested on: CCRF-CEM leukemia
[55] = tested on: NCI-H23 lung

`COc1ccc(-c2nc(-c3nc4ccc(C)cc4[nH]3)c3ccccn23)cc1` was tested, and the GI50 [1] was 2.58 µM, the TGI [1] was 6.53 µM and the GI50 [2] was 4.61 µM. For the same molecule, the TGI [2] was > 100 µM, the GI50 [3] was 1.88 µM and the TGI [3] was 7.68 µM. The GI50 [4] was 2.05 µM, the TGI [4] was 6.15 µM and the GI50 [5] was 3.27 µM. The TGI [5] was > 100 µM, the GI50 [6] was 3.81 µM and the TGI [6] was > 100 µM. It also gave a GI50 [7] of 2.17 µM, a TGI [7] of 7.99 µM and a GI50 [8] of 2.7 µM. For the same molecule, the TGI [8] was > 100 µM, the GI50 [9] was 2.67 µM and the TGI [9] was > 100 µM. For the same molecule, the GI50 [10] was 3.03 µM, the TGI [10] was 7.73 µM and the GI50 [11] was 2.99 µM. For the same molecule, the TGI [11] was 10.2 µM, the GI50 [12] was 1.95 µM and the TGI [12] was 4.63 µM. The GI50 [13] was 3.15 µM, the TGI [13] was 8.6 µM and the GI50 [14] was 2.83 µM. For the same molecule, the TGI [14] was 8.62 µM, the GI50 [15] was 2.97 µM and the TGI [15] was > 100 µM. The GI50 [16] was 2.17 µM, the TGI [16] was 6.05 µM and the GI50 [17] was 2.77 µM. The TGI [17] was > 100 µM, the GI50 [18] was 1.47 µM and the TGI [18] was 3.93 µM. The GI50 [19] was 2.92 µM, the TGI [19] was > 100 µM and the GI50 [20] was 3.72 µM. The TGI [20] was > 100 µM, the GI50 [21] was 2.51 µM and the TGI [21] was 5.71 µM. It also gave a GI50 [22] of 3.39 µM, a TGI [22] of 9.22 µM and a GI50 [23] of 2.38 µM. It also gave a TGI [23] of 9.07 µM, a GI50 [24] of 2.71 µM and a TGI [24] of 8.06 µM. For the same molecule, the GI50 [25] was 3.23 µM, the TGI [25] was > 100 µM and the GI50 [26] was 3.26 µM. For the same molecule, the TGI [26] was 9.46 µM, the GI50 [27] was 6.95 µM and the TGI [27] was > 100 µM. The GI50 [28] was 0.416 µM, the TGI [28] was 4.36 µM and the GI50 [29] was 3.12 µM. The TGI [29] was > 100 µM, the GI50 [30] was 2.8 µM and the TGI [30] was > 100 µM. The GI50 [31] was 2.41 µM, the TGI [31] was 6.17 µM and the GI50 [32] was 4.69 µM. The TGI [32] was > 100 µM, the GI50 [33] was 2.47 µM and the TGI [33] was 9.65 µM. For the same molecule, the GI50 [34] was 3.36 µM, the TGI [34] was > 100 µM and the GI50 [35] was 5.49 µM. For the same molecule, the TGI [35] was > 100 µM, the GI50 [36] was 3.67 µM and the TGI [36] was > 100 µM. The GI50 [37] was 2.3 µM, the TGI [37] was 8.46 µM and the GI50 [38] was 2.85 µM. The TGI [38] was > 100 µM, the GI50 [39] was 2.83 µM and the TGI [39] was > 100 µM. It also gave a GI50 [40] of 2.55 µM, a TGI [40] of 6.36 µM and a GI50 [41] of 2.14 µM. The TGI [41] was 5.66 µM, the GI50 [42] was 3.88 µM and the TGI [42] was > 100 µM. For the same molecule, the GI50 [43] was 2.83 µM, the TGI [43] was > 100 µM and the GI50 [44] was 3.32 µM. The TGI [44] was > 100 µM, the GI50 [45] was 2.28 µM and the TGI [45] was 6.11 µM. The GI50 [46] was 2.93 µM, the TGI [46] was 7.01 µM and the GI50 [47] was 3.09 µM. The TGI [47] was > 100 µM, the GI50 [48] was 2.27 µM and the TGI [48] was 8.06 µM. For the same molecule, the GI50 [49] was 7.73 µM, the TGI [49] was > 100 µM and the GI50 [50] was 1.67 µM. For the same molecule, the TGI [50] was 6.09 µM, the GI50 [51] was 2.18 µM and the TGI [51] was 6.12 µM. For the same molecule, the GI50 [52] was 3.08 µM, the TGI [52] was > 100 µM and the GI50 [53] was 1.39 µM. It also gave a TGI [53] of 2.72 µM, a GI50 [54] of 1.97 µM and a TGI [54] of 6.28 µM. The GI50 [55] was 3.85 µM and the TGI [55] was > 100 µM.
